Data on 16 compounds can be found in BindingDB's records for patent US20240287079 (Japan Tobacco, 2024).

Each structure is given as a SMILES string.

Sequence of NACHT, LRR and PYD domains-containing protein 3 (Q96P20 whole entry, the tested form may be a part): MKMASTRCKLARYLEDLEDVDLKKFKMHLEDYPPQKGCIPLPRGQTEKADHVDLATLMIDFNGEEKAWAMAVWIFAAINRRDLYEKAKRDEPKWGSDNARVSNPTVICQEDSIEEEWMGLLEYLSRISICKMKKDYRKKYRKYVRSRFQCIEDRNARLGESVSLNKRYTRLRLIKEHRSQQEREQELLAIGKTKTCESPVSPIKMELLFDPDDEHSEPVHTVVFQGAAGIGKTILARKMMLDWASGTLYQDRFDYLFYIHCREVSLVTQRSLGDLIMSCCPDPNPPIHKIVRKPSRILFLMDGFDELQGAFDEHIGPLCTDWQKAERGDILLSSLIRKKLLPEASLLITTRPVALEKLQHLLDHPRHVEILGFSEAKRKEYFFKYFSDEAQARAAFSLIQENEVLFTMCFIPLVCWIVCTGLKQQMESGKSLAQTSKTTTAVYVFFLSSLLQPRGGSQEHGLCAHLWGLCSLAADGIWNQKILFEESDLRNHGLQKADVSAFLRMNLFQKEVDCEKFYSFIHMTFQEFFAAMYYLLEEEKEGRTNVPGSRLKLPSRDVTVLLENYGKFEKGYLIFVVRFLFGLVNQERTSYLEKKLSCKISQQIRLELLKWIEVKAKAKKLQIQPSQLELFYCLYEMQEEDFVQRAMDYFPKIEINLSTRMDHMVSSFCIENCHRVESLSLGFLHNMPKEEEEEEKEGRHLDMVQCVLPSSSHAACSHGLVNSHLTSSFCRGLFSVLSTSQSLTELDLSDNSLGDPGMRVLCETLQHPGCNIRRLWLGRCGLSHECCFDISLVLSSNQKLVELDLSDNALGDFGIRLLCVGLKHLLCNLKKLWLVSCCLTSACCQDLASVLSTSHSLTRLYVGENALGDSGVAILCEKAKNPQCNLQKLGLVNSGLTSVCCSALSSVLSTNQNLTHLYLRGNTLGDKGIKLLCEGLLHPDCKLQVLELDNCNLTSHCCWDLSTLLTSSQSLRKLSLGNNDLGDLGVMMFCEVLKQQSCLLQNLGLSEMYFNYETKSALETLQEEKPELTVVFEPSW

This assay addresses NACHT, LRR and PYD domains-containing protein 3 (Homo sapiens, UniProt Q96P20). Nature of the assay: Evaluation of NLRP3 Inflammasome Inhibitory Activity Assay. The protocol:
The NLRP3 inflammasome inhibitory activity of test compounds were evaluated on the basis of the inhibitory activity of the IL-1β production in THP1-Null cells (Product Number: thp-null, InvivoGen). […] The supernatant of the culture was removed, and thereto was added media for assay (25 μL/well) containing 1 μg/mL Lipopolysaccharides (Product Number: L2654, Sigma-Aldrich (registered trademark)). […] The supernatant of the culture was removed. […] A solution containing a test compound (20 μL/well) was added to test compound-setting wells. […] The supernatant of the culture was cryonically stored (set at −20° C.) until measurement of IL-1β.
Compound `COC1(C)CN(c2nc3nn(-c4c(C)cc(Br)cc4C)cc3c(=O)[nH]2)C1` [US20240287079, Example 203] registered a half-inhibitory concentration (IC50) of 27 nM.

Turning to `Cc1cc(Br)cc(C)c1-n1cc2c(=O)[nH]c(N3CC4(COC4)C3)nc2n1` [US20240287079, Example 204], it took 28 nM to reach half-maximal inhibition (IC50).

`COC1(C)CN(c2nc3nn(-c4c(C)cc(Br)cc4C)cc3c(=O)n2C)C1` [US20240287079, Example 212] had an IC50 of 130 nM.

The compound `Cc1cc(Br)cc(C)c1-n1cc2c(=O)[nH]c(N3CCOC[C@H]3C)nc2n1` [US20240287079, Example 213] showed a concentration for half-maximal inhibition (IC50) of 6.8 nM.

Take `Cc1cc(Br)cc(C)c1-n1cc2c(=O)[nH]c(N3CCO[C@@H](C)C3)nc2n1` [US20240287079, Example 214]: the IC50 was 19 nM.

In turn, `Cc1cc(Br)cc(C)c1-n1cc2c(=O)[nH]c(N3CCO[C@H](C)C3)nc2n1` [US20240287079, Example 215] had a concentration for half-maximal inhibition (IC50) of 17 nM.

For the compound `COC1COCCN(c2nc3nn(-c4c(C)cc(Br)cc4C)cc3c(=O)[nH]2)C1` (stereo unspecified) [US20240287079, Example 216], half-maximal inhibition (IC50) required 12 nM.

Consider `Cc1cc(Br)cc(C)c1-n1cc2c(=O)[nH]c(N3CCOC[C@@H]3C)nc2n1` [US20240287079, Example 223], for which the IC50 is 160 nM.

Turning to `Cc1cc(Br)cc(C)c1-n1cc2c(=O)[nH]c(N3C[C@@H](C)O[C@@H](C)C3)nc2n1` [US20240287079, Example 224], half-maximal inhibition (IC50) was put at 80 nM.

For `Cc1cc(Br)cc(C)c1-n1cc2c(=O)[nH]c(N3CCOC4(CC4)C3)nc2n1` [US20240287079, Example 225], the IC50 amounted to 19 nM.

The compound `Cc1cc(Br)cc(C)c1-n1cc2c(=O)[nH]c(N3C4CCC3CC(F)(F)C4)nc2n1` [US20240287079, Example 238] returned an IC50 of 110 nM.

On to `Cc1cc(Br)cc(C)c1-n1cc2c(=O)[nH]c(N3CC4CCC(C3)C4(F)F)nc2n1` [US20240287079, Example 239], for which the half-maximal inhibitory concentration (IC50) stood at 11 nM.

For `Cc1cc(Br)cc(C)c1-n1cc2c(=O)[nH]c(N3CCC4CC43)nc2n1` (stereo unspecified) [US20240287079, Example 240], the IC50 stood at 7.1 nM.

In turn, `CNc1nc2nn(-c3c(C)cc(Br)cc3C)cc2c(=O)n1C` [US20240287079, Example 247] yielded an IC50 of 260 nM.

For the compound `CCC1COCCN1c1nc2nn(-c3c(C)cc(Br)cc3C)cc2c(=O)[nH]1` (stereo unspecified) [US20240287079, Example 248], the IC50 stood at 30 nM.

Compound `Cc1cc(Br)cc(C)c1-n1cc2c(=O)[nH]c(N3CCOC4(COC4)C3)nc2n1` [US20240287079, Example 264] returned an IC50 of 32 nM.

As usually defined, the IC50 is the concentration at which inhibition is half-maximal. Low readings indicate higher potency, high ones lower potency.
